Some targets named below: CDK2 (Homo sapiens, UniProt P24941); HIPK2 (Homo sapiens, UniProt Q9H2X6); PIM1 (Homo sapiens, UniProt P11309).
Holding throughout (experiment): biochemical
Design in all cases: Thermal shift (DSF, SYPRO Orange) Tm shift of recombinant kinase domains at 10 uM compound

The target of another experiment is T1, CSNK2a1 (Homo sapiens, UniProt P68400).
T1 construct: kinase domain

In the next experiment the target is T2, MAP3K5 (Homo sapiens, UniProt Q99683).
T2 sequence (Q99683 1-1374): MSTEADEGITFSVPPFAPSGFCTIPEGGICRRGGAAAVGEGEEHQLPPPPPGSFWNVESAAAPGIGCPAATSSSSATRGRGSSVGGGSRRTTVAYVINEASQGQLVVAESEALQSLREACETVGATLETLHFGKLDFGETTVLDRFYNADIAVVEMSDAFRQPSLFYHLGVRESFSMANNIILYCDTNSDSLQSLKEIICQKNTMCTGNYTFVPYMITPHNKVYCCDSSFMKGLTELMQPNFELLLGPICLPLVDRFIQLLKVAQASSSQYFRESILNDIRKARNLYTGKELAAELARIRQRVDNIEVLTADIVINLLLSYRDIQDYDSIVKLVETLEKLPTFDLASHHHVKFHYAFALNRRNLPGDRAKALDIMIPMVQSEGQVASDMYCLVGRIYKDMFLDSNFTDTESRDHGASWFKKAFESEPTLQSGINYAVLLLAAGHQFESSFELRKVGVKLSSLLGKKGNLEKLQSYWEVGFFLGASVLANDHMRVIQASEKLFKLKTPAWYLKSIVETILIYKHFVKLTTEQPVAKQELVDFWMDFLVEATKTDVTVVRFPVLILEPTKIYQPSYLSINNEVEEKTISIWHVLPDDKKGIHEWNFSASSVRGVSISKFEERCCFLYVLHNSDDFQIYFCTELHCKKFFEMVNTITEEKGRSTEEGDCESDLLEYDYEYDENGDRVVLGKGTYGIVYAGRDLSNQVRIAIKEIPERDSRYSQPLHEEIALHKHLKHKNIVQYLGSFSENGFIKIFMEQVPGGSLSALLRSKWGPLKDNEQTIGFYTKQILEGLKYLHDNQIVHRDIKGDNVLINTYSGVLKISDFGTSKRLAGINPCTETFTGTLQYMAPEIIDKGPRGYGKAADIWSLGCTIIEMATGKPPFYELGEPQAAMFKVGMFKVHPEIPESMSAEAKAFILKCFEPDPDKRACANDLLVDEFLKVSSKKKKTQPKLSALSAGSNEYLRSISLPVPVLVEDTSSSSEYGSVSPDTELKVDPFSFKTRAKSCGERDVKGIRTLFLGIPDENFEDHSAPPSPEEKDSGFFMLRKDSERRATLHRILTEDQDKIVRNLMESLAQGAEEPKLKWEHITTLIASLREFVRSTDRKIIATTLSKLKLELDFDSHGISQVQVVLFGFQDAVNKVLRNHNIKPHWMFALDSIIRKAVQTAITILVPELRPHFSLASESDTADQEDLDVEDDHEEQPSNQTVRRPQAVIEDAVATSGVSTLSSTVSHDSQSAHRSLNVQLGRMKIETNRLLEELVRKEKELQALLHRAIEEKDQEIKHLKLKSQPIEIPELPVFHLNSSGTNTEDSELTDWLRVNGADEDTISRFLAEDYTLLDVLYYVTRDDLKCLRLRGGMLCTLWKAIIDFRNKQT

Like-named read-outs stand apart in the source and are kept apart here.

T1 sequence (P68400 whole entry, the tested form may be a part): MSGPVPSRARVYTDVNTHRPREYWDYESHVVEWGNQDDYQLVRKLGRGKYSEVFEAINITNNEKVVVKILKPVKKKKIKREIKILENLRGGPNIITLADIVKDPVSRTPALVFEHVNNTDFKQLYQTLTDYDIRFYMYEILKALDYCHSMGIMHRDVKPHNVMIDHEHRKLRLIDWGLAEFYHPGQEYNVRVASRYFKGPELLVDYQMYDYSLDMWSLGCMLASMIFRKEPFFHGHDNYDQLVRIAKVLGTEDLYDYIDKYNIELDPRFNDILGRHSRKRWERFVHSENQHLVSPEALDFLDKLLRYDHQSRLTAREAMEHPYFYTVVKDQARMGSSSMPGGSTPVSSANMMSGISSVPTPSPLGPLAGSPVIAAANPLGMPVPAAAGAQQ
HIPK2, sequence (Q9H2X6 whole entry): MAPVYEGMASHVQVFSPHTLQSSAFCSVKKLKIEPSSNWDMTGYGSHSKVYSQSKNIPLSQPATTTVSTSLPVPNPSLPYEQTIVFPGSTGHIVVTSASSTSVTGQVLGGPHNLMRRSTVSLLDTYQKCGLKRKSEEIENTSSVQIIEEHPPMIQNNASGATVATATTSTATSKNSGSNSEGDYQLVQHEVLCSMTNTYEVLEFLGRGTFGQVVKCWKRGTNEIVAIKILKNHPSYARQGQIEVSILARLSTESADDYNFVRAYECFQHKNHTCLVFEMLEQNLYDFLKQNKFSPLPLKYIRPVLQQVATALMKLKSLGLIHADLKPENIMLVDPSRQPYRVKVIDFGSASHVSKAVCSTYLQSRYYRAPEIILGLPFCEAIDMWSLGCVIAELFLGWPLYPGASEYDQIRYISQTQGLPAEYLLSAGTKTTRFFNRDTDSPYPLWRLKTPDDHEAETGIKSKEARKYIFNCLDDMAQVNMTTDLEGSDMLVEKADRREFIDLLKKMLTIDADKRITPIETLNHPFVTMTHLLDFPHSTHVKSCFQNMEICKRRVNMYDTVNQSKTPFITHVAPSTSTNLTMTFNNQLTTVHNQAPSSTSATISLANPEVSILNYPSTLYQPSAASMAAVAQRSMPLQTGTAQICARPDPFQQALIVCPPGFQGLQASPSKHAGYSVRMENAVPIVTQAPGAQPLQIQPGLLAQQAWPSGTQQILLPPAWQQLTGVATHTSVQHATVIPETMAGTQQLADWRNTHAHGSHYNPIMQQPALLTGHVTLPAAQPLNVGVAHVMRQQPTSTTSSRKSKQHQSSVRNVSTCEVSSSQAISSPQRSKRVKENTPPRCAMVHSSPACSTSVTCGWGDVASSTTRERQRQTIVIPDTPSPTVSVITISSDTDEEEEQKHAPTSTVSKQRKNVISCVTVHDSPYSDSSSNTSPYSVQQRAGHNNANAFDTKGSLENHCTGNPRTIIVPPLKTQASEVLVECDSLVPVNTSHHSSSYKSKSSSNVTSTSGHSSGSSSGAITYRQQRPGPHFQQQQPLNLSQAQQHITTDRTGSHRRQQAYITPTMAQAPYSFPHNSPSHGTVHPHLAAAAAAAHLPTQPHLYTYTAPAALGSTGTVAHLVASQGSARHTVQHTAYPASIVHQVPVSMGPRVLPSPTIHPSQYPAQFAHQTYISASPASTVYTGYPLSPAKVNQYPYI
PIM1, sequence (P11309 whole entry): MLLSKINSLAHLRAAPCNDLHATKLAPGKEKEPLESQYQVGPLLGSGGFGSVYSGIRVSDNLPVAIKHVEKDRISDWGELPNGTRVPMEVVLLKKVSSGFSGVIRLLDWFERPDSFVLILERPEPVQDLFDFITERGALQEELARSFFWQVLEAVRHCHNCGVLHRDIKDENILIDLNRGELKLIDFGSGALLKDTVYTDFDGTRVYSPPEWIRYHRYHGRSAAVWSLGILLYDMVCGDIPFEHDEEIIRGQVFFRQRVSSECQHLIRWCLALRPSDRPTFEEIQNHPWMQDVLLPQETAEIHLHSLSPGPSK
Description for CDK2: (§1) S23 Thermal stability kinase selectivity. The assay was performed as previously described. 9,10 Briefly, recombinant protein kinase domains at a concentration of 2 μM were mixed with 10 μM compound in a buffer containing 20 mM HEPES, pH 7.5, and 500 mM NaCl. SYPRO Orange (5000×, Invitrogen) was added as a fluorescence probe (1 µl per mL). Subsequently, temperature-dependent protein unfolding profiles were measured using the QuantStudio™ 5 realtime PCR machine (Thermo Fisher). […] The temperature was raised with a step rate of 3°C per minute. Data points were analysed with the internal software (Thermal Shift SoftwareTM Version 1.4, Thermo Fisher) using the Boltzmann equation to determine the inflection point of the transition curve.
Description for CSNK2a1: as §1
Description for HIPK2: as §1
Description for MAP3K5: as §1
Description for PIM1: as §1

`COc1ccc(OC(C)C)cc1Nc1cncc(-c2ccc(C(=O)O)cc2)n1` [7c]: the ΔTm at 10 µM is 1 °C on CDK2 (read-out: 7c); 15 °C on CSNK2a1 (read-out: 7c); 7 °C on HIPK2 (read-out: 7c); 1 °C on MAP3K5 (read-out: 7c); 9 °C at PIM1 (read-out: 7c).
Take `CC(C)Oc1ccc2ccn(-c3cncc(-c4ccc(C(=O)O)cc4)n3)c2c1` [6c]: the ΔTm at 10 µM was determined as 5 °C at CDK2 (read-out: 6c); 15 °C at CSNK2a1 (read-out: 6c); 9 °C at HIPK2 (read-out: 6c); 3 °C at MAP3K5 (read-out: 6c); 10 °C at PIM1 (read-out: 6c).
On to `CC(C)Nc1ccc2cnn(-c3cncc(-c4ccc(C(=O)O)cc4)n3)c2c1` [compound 2, 2], for which, on MAP3K5 (read-out: 2), the ΔTm at 10 µM was 5 °C.
